In patent publication US20090048247A1, “CONDENSED ISOXALINE DERIVATIVES AS INHIBITORS OF PHOSPHODIESTERASE TYPE - IV” (priority 2005, published 2009):
Blank lines part the entries; values can stand above or below the compound they belong to.

Legend:
[1] = test system: TNF-α release, human peripheral blood mononuclear cells; assay: Cell Based Assay for TNF-α Release (LPS stimulation of Human PBMNC's); details: PBMC, LPS 1 μg/ml, TNF-α by ELISA, comparator, 4 repetitions
Protocol: Human whole blood was collected in vacutainer tubes containing heparin or EDTA as an anti coagulant. The blood was diluted (1:1) in sterile phosphate buffered saline and 10 ml. was carefully layered over 5 ml Ficoll Hypaque gradient (density 1.077 g/ml) in a 15 ml conical centrifuge tube. The sample was centrifuged at 3000 rpm for 25 minutes in a swing-out rotor at room temperature. After centrifugation, interface of cells were collected, diluted at least 1:5 with PBS and washed three times by centrifugation at 2500 rpm for 10 minutes at room temperature. The cells were resuspended in serum free RPMI 1640 medium at a concentration of 2 million cells/ml. Alternatively whole blood was used.
LPS stimulation of Human PBMNC's:
PBMN cells (0.1 ml; 2 million/ml) were co-incubated with 20 μl of compound (final DMSO concentration of 0.2%) for 10 min in a flat bottom 96 well microtiter plate. Compounds were dissolved in DMSO initially and diluted in medium for a final concentration of 0.2% DMSO. LPS (1 μg/ml, final concentration) was then added at a volume of 10 μl per well. After 30 min, 20 μl of fetal calf serum (final concentration of 10%) was added to each well. […] The level of TNFα in treated wells was compared with the vehicle treated controls and inhibitory potency of compound was expressed as IC50 values calculated by using Graph pad prism.

[2] = Solubility under the experimental conditions of the PDE-IV enzyme assay
Protocol: The PDE-4 enzyme source used was U937 cell cytosolic fraction prepared by sonication. The enzyme reaction was carried out, with the cytosolic fraction as the enzyme source, in the presence of cAMP (1 μM) at 30° C. in the presence or absence of NCE for 45-60 min. An aliquot of this reaction mixture was taken further for the ELISA assay to determine level of cAMP in the sample. The concentration of the cAMP in the sample directly correlates with the degree of PDE-4 enzyme inhibition.

melting point: 110.5 °C
SMILES: COc1ccc(C2=NO[C@]3(CCOC3)C2)cc1OC1CCCC1 [Compound No. 124, (S)-3-[3-(cyclopentyloxy)-4-methoxyphenyl]-1,7-dioxa-2-azaspiro[4.4]non-2-ene]

IC50 [1]: ~240 nM
SMILES: COc1ccc(C2CNC(=O)C2)cc1OC1CCCC1 (stereo not drawn) [rolipram]

SMILES: c1cc(OC2CCCC2)c(OC2CCCCCC2)cc1C1=NOC2(CCOC2)C1 (stereo not drawn) [Compound No. 119, 3-[3-(Cycloheptyloxy)-4-(cyclopentyloxy)phenyl]-1,7-dioxa-2-azaspiro[4.4]non-2-ene]
solubility under the experimental conditions [2]: insoluble
